# “And” between values parts separate entries of the source, which are not always exact repeats. Equal values may be shown once.
# How the values were obtained:
# Balb C mice [1] = assay: Formalin-induced paw-licking test
# Balb C mice [2] = assay: Tail immersion; type: in vivo
# Dopaminergic Receptor = assay: Involvement of dopaminergic receptors; type: in vivo, mice
# COX-2 = target: T1, COX-2 (Homo sapiens, UniProt P35354); assay: Cyclooxygenase-2; type: biochemical; conditions: for IC50: IC50 COX-2, ±SEM, triplicate
# T1 sequence (P35354 18-604): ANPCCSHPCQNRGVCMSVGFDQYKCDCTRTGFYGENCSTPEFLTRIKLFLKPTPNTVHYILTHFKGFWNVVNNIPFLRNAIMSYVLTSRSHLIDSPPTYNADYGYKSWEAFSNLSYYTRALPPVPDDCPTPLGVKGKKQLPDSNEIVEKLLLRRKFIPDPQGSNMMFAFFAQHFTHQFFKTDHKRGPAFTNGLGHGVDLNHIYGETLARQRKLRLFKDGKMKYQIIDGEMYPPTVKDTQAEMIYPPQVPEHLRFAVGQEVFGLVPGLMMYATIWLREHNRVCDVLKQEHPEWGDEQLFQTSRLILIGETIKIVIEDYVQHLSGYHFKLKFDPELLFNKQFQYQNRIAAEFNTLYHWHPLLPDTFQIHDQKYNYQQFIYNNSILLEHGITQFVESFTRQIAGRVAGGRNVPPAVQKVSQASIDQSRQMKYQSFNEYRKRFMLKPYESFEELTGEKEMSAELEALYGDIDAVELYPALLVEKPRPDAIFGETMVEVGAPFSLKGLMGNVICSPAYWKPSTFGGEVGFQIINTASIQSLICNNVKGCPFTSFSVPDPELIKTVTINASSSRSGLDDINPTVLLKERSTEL
# COX-1 = COX-1 (Homo sapiens, UniProt P23219); assay: Cyclooxygenase-1; type: biochemical; conditions: IC50 COX-1, ±SEM, triplicate
# [3] = test system: Alpha-2 Adrenergic Receptor; assay: Involvement of adrenergic receptors; type: in vivo, mice
# Balb C mice [4] = assay: Acetic acid induced writhing test; type: in vivo; conditions: 50 mg/kg
# Balb C mice [5] = assay: Acute toxicity study; type: in vivo; conditions: I/P, highest tested dose 150 mg/kg, 24 hours
# [6] = 10 mg/kg, with naloxone (N, 2 mg/kg s.c.)
# [7] = 5 mg/kg, with naloxone (N, 2 mg/kg s.c.)
# [8] = haloperidol alone, 1 mg/kg i.p.
# [9] = 25 mg/kg after haloperidol (HL, 1 mg/kg)
# [10] = 50 mg/kg after haloperidol (HL, 1 mg/kg)
# [11] = 25 mg/kg after yohimbine (YH, 1 mg/kg)
# [12] = 50 mg/kg after yohimbine (YH, 1 mg/kg)
# [13] = 25 mg/kg, with naloxone (N, 2 mg/kg s.c.)
# [14] = 50 mg/kg, with naloxone (N, 2 mg/kg s.c.)
# COX-1, sequence (P23219 24-599): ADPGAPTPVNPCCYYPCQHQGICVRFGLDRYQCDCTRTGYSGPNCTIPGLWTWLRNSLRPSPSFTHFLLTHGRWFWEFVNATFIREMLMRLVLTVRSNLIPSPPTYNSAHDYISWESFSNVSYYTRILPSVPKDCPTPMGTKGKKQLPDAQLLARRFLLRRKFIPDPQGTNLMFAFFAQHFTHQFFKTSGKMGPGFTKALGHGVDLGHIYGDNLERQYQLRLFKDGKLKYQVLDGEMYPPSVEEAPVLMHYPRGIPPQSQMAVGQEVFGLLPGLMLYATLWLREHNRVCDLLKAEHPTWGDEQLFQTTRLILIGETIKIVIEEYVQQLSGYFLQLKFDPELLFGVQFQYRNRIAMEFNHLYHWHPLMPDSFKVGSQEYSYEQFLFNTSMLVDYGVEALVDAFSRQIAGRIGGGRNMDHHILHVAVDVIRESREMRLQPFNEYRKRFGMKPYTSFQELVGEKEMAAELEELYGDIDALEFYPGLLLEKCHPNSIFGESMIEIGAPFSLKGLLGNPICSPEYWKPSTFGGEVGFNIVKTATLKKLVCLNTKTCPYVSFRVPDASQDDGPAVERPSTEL
structure (smiles),measurement,setting,value
"COc1ccc2c(c1)c(CC(=O)O)c(C)n2C(=O)c1ccc(Cl)cc1 [Indomethacin, indomethacin, reference compound]",Inhibition (%) 1st Phase,Balb C mice [1]; 10 mg/kg,23.69±3.24%
same,Inhibition (%) 2nd Phase,Balb C mice [1]; 10 mg/kg,74.34±2.86%
same,Licking Time 1st Phase,Balb C mice [1]; 10 mg/kg,38.65 ± 1.37 s
same,Licking Time 2nd Phase,Balb C mice [1]; 10 mg/kg,18.96 ± 1.342 s
same,Inhibition (%) 1st Phase,Balb C mice [1]; [6],11.64±1.20%
same,Licking Time 1st Phase,Balb C mice [1]; [6],44.75 ± 1.76 s
same,Licking Time 2nd Phase,Balb C mice [1]; [6],25.00 ± 1.249 s
"CN1CC[C@]23c4c5ccc(O)c4O[C@H]2[C@@H](O)C=C[C@H]3[C@H]1C5 [Morphine, morphine, reference compound]",Tail flick Response (%),"Balb C mice [2]; 5 mg/kg, 15 Minutes",48.1%
same,Tail flick Response (%),"Balb C mice [2]; 5 mg/kg, 30 Minutes",56.1%
same,Tail flick Response (%),"Balb C mice [2]; 5 mg/kg, 45 Minutes",75%
same,Tail flick Response (%),"Balb C mice [2]; 5 mg/kg, 60 Minutes",85%
same,Tail flick Response (%),"Balb C mice [2]; 5 mg/kg, 75 Minutes",80.2%
same,Tail flick Response (%),"Balb C mice [2]; 5 mg/kg, 75 Minutes, listed as morphine",80.2%
same,Tail flick Response (%),"Balb C mice [2]; 5 mg/kg, 90 Minutes",78.4%
same,Tail flick Response (%),"Balb C mice [2]; 5 mg/kg, 90 Minutes, listed as morphine",78.4%
same,Inhibition (%) 1st Phase,Balb C mice [1]; 5 mg/kg,87.16±3.32%
same,Inhibition (%) 2nd Phase,Balb C mice [1]; 5 mg/kg,96.34±0.66%
same,Licking Time 1st Phase,Balb C mice [1]; 5 mg/kg,6.50 ± 1.153 s
same,Licking Time 2nd Phase,Balb C mice [1]; 5 mg/kg,2.70 ± 1.340 s
same,Inhibition (%) 1st Phase,Balb C mice [1]; [7],2.68±1.20%
same,Inhibition (%) 2nd Phase,Balb C mice [1]; [7],1.44±0.28%
same,Licking Time 1st Phase,Balb C mice [1]; [7],49.29 ± 1.52 s
same,Licking Time 2nd Phase,Balb C mice [1]; [7],72.83 ± 1.152 s
"O=C(CCCN1CCC(O)(c2ccc(Cl)cc2)CC1)c1ccc(F)cc1 [Haloperidol, haloperidol, reference compound]",% Activity,Dopaminergic Receptor; [8],17.50±1.28%
same,Writhing,Dopaminergic Receptor; [8],55.78±2.02
"CC(=O)CC(C[N+](=O)[O-])c1ccccc1 (stereo not shown) [Compound 9, 5-nitro-4-phenylpentan-2-one]",Selectivity Index (SI) (IC50 COX-1/IC50 COX-2),COX-2,0.91
same,IC50,COX-2,73.5 ± 1.38 µM
same,IC50,COX-1,67.6 ± 1.02 µM
"COC(=O)[C@@H]1[C@H]2C[C@H]3c4[nH]c5ccccc5c4CCN3C[C@@H]2CC[C@@H]1O [Yohimbine, yohimbine, reference compound]",% Activity,"[3]; yohimbine alone, 1 mg/kg i.p.",15.08±1.15%
same,Writhing,"[3]; yohimbine alone, 1 mg/kg i.p.",57.4±2.02
O=C(O)Cc1ccccc1Nc1c(Cl)cccc1Cl [diclofenac sodium],Inhibition of writhing,Balb C mice [4]; n=6,85%
same,Inhibition of writhing,"Balb C mice [4]; n=6, listed as diclofenac",84.96%
"CCC[C@](C)(C=O)[C@@H]1CC(=O)N(c2ccccc2)C1=O [Compound 4, (S)-2-((S)-2,5-dioxo-1-phenylpyrrolidin-3-yl)-2-methylpentanal]","Acute toxicity (adverse effect, change in body weight, mortality)",Balb C mice [5],safe
same,Tail flick Response (%),"Balb C mice [2]; 25 mg/kg i.p., 15 Minutes",11.1%
same,Tail flick Response (%),"Balb C mice [2]; 25 mg/kg i.p., 30 Minutes",14.8%
same,Tail flick Response (%),"Balb C mice [2]; 25 mg/kg i.p., 45 Minutes",16.3%
same,Tail flick Response (%),"Balb C mice [2]; 25 mg/kg i.p., 60 Minutes",18.9%
same,Tail flick Response (%),"Balb C mice [2]; 25 mg/kg i.p., 75 Minutes",29.5%
same,Tail flick Response (%),"Balb C mice [2]; 25 mg/kg i.p., 75 Minutes, listed as Comp 4",29.5%
same,Tail flick Response (%),"Balb C mice [2]; 25 mg/kg i.p., 90 Minutes",19.8%
same,Tail flick Response (%),"Balb C mice [2]; 50 mg/kg i.p., 15 Minutes",14.8%
same,Tail flick Response (%),"Balb C mice [2]; 50 mg/kg i.p., 30 Minutes",22.7%
same,Tail flick Response (%),"Balb C mice [2]; 50 mg/kg i.p., 45 Minutes",33.7%
same,Tail flick Response (%),"Balb C mice [2]; 50 mg/kg i.p., 60 Minutes",42.1%
same,Tail flick Response (%),"Balb C mice [2]; 50 mg/kg i.p., 75 Minutes",53.4%
same,Tail flick Response (%),"Balb C mice [2]; 50 mg/kg i.p., 75 Minutes, listed as Comp 4",53.4%
same,Tail flick Response (%),"Balb C mice [2]; 50 mg/kg i.p., 90 Minutes",46.2%
same,Tail flick Response (%),"Balb C mice [2]; 50 mg/kg i.p., 90 Minutes, listed as Comp 4",46.2%
same,Selectivity Index (SI) (IC50 COX-1/IC50 COX-2),COX-2,1.94
same,IC50,COX-2,65 µM and 65.9 µM
same,% Activity,Dopaminergic Receptor; [9],16.52±1.25%
same,Writhing,Dopaminergic Receptor; [9],56.42±1.05
same,% Activity,Dopaminergic Receptor; [10],16.70±1.16%
same,Writhing,Dopaminergic Receptor; [10],56.23±1.05
same,% Activity,[3]; [11],15.58±1.44%
same,Writhing,[3]; [11],57.09±2.20
same,% Activity,[3]; [12],16.08±1.08%
same,Writhing,[3]; [12],56.73±1.05
same,IC50,COX-1,128 µM
same,Inhibition of writhing,Balb C mice [4]; n=6,52.2%
same,Inhibition (%) 1st Phase,Balb C mice [1]; 25 mg/kg,22.30±0.85%
same,Inhibition (%) 2nd Phase,Balb C mice [1]; 25 mg/kg,38.94±2.88%
same,Licking Time 1st Phase,Balb C mice [1]; 25 mg/kg,39.35 ± 1.231 s
same,Licking Time 2nd Phase,Balb C mice [1]; 25 mg/kg,45.12 ± 1.145 s
same,Inhibition (%) 1st Phase,Balb C mice [1]; [13],17.47±1.89%
same,Inhibition (%) 2nd Phase,Balb C mice [1]; [13],33.76±2.53%
same,Licking Time 1st Phase,Balb C mice [1]; [13],41.80 ± 1.33 s
same,Licking Time 2nd Phase,Balb C mice [1]; [13],48.95 ± 1.40 s
same,Inhibition (%) 1st Phase,Balb C mice [1]; 50 mg/kg,36.16±4.47%
same,Inhibition (%) 2nd Phase,Balb C mice [1]; 50 mg/kg,50.66±3.84%
same,Licking Time 1st Phase,Balb C mice [1]; 50 mg/kg,32.33 ± 1.356 s
same,Licking Time 2nd Phase,Balb C mice [1]; 50 mg/kg,36.45 ± 1.232 s
same,Inhibition (%) 1st Phase,Balb C mice [1]; [14],23.69±1.44%
same,Inhibition (%) 2nd Phase,Balb C mice [1]; [14],42.15±1.43%
same,Licking Time 1st Phase,Balb C mice [1]; [14],38.65 ± 1.25 s
same,Licking Time 2nd Phase,Balb C mice [1]; [14],42.75 ± 1.65 s

# Reference: paper PMC8001115 (Drug Design, Development and Therapy, 2021)
